Molecular target: Glycogen synthase kinase-3 alpha (Homo sapiens, UniProt P49840)
Test: Enzyme Inhibition Assay: The inhibitory activities of compounds of the invention against the GSK 3α enzyme isoform (Invitrogen), are evaluated by determining the level of activation/phosphorylation of the target peptide. The GSK3-α protein (500 ng/mL, 2.5 μL) is mixed with the test compound (2.5 μL at either 4 μg/mL, 0.4 μg/mL, 0.04 μg/mL, or 0.004 μg/mL) for 2 hr at RT. The FRET peptide (8 μM, 2.5 μL), which is a phosphorylation target for GSK3α, and ATP (40 μM, 2.5 μL) are then added to the enzyme/compound mixture and the resulting mixture incubated for 1 hr. Development reagent (protease, 5 μL) is added for 1 hr prior to detection in a fluorescence microplate reader (Varioskan® Flash, ThermoFisher Scientific).In all cases, the site-specific protease cleaves non-phosphorylated peptide only and eliminates the FRET signal. Phosphorylation levels of each reaction are calculated using the ratio of coumarin emission (donor) over fluorescein emission (acceptor), for which high ratios indicate […] phosphorylation levels.

Glycogen synthase kinase-3 alpha, sequence (P49840 whole entry, canonical isoform): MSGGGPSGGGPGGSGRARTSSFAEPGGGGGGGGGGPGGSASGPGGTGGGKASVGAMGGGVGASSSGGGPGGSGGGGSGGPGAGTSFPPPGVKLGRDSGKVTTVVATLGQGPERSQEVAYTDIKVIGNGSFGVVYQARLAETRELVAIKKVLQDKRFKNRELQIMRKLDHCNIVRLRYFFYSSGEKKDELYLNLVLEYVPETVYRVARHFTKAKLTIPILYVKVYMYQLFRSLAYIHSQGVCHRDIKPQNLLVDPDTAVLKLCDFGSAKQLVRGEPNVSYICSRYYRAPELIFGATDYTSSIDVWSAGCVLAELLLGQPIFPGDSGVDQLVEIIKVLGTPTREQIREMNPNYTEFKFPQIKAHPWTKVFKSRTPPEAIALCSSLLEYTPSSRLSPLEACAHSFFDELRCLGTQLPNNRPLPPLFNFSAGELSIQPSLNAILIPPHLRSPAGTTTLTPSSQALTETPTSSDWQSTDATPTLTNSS

Row | Structure (SMILES) | IC50 [nM]
1 | COc1cc(N=S(C)(C)=O)cc(Nc2nccc(Oc3ccc(NC(=O)Nc4cc(C(C)C)nn4-c4ccc(C)cc4)c4ccccc34)n2)c1 | 824
2 | COc1cc(Nc2nccc(Oc3ccc(NC(=O)Nc4cc(C(C)(C)C)nn4-c4ccc(C)cc4)c(Cl)c3Cl)n2)cc(S(=O)(=O)C2CC2)c1 | > 10000

Source: ChEMBL document CHEMBL5726327, “Kinase inhibitors” (2017)
